This passage reports RP-LC retention time results from the METLIN SMRT retention time set (Domingo-Almenara et al. 2019).

Each structure is given as a SMILES string.

The nature of this data set: gradient 5% acetonitrile 3 min, to 50% in 2 min, to 85% in 15 min, held 3 min, 100 µL/min. The conditions noted are these: column: Zorbax Extend-C18 2.1 x 50 mm; eluents: water / acetonitrile, 0.1% formic acid. The essentials: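 The mobile phases were water and acetonitrile, each with 0.1% formic acid, pumped at 100 μL/min through a Zorbax Extend-C18 column (2.1 × 50 mm, 1.8 μm). Pure standards were injected as mixtures of ~100 molecules and detected by a quadrupole time-of-flight mass spectrometer in positive and negative ionization mode. Retention time came from computationally picked adduct peaks, each inspected by hand.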
Compound `COc1cccc(-n2ccn3cc(-c4ccc(Cl)cc4)nc3c2=O)c1` displayed an RP-LC retention time of 875 s.
The result for `CCCCNC(=O)CCc1nc(N2CCCCCC2)c2c(C)noc2n1` reads 842 s; that for `COC(=O)c1cc(OCC(=O)Nc2ccccc2F)c2cc(OC)c(OC)cc2n1`, 756 s.
Then `Cc1cc(-c2nnc(-c3ccc(F)cc3)o2)c(C)n1CC(=O)NCc1cccs1`, with 905 s.
The result for `COc1ccc(Cl)cc1NC(=O)N1CCN(c2ccc3nncn3n2)CC1` reads 667 s; that for `CC(C)n1cnc(S(=O)(=O)N2CCC(C(=O)NCc3ccccc3)CC2)c1`, 712 s; that for `O=C(NCCCN1CCOC(c2ccccc2)C1)NC1CCCCC1` (stereo not drawn), 584 s.
Turning to `CC(=O)NC(CCS(C)(=O)=O)C(=O)Nc1ccc(-c2nc3ccc(C)cc3s2)cc1` (stereo not drawn), the RP-LC retention time was found to be 741 s.
The result for `CCN(Cc1ccccc1)C(=O)c1ncn2c1C(=O)N(C1CC1)C(C)(C(=O)NCc1ccccc1)C2` (stereo not drawn) reads 742 s; that for `O=C(Nc1ccc(Br)cc1F)C1CCCN(S(=O)(=O)Cc2ccc(F)cc2)C1` (stereo not drawn), 1040 s; that for `O=C(Nc1cccnc1N1CCOCC1)C1CC1`, 576 s.
On to `Cc1cccc(CNC(=O)CC2CCN(C(=O)c3[nH]c(C)c(C(=O)OC(C)C)c3C)CC2)c1`, for which the RP-LC retention time turned out to be 880 s.
The result for `Cc1cc(NC(=O)C(=O)c2cccn2C)ccc1Br` reads 1120 s.
For `Cc1ccc(N2CCC(NC(=O)Nc3cc(C)cc(C)c3)C2=O)cc1` (stereo not drawn), the RP-LC retention time came out at 931 s.
Then `Cc1noc(C)c1Cc1ccc(C(=O)N(C)C2CCc3nnc(C)n3CC2)o1` (stereo not drawn), with 602 s; and `Cc1nn(C)c(C)c1CCN(C)C(=O)C1Cn2cccc2C(=O)N1C` (stereo not drawn), with 680 s.
As to `CCCN1C(=O)C(C)(C(=O)NCc2ccc(C)cc2)Oc2cccnc21` (stereo not drawn), the RP-LC retention time stood at 616 s.
Then `Cc1ccc(CNC(=O)C2=C3CCCN3c3ccc(F)cc3S2(=O)=O)cc1`, with 909 s; and `COc1cc(OC)cc(C(=O)N2CCN=C2N2CCCCC2)c1`, with 646 s.
Take `CCCNC(=O)Nc1cc2c(cc1N1CCC(C(=O)OCC)CC1)n(C)c(=O)n2C`: the RP-LC retention time turned out to be 716 s.
`CCOC(=O)c1nc(Nc2ccc(S(=O)(=O)Nc3nc(C)cc(C)n3)cc2)c2ccccc2n1` returned an RP-LC retention time of 692 s.
Compound `COc1ccc(-c2nnc(N3CCC(C(=O)NCCN4CCCC4)CC3)o2)cc1` yielded an RP-LC retention time of 590 s.
As to `CCOc1ccc(-c2noc(Cn3c(=O)n(CC4CCCO4)c(=O)c4ccccc43)n2)cc1` (stereo not drawn), the RP-LC retention time was determined as 1050 s.
Then `CCN1C(=O)COc2ccc(-c3csc(NC(=O)C(C)(C)C)n3)cc21`, with 910 s; and `O=C(c1ccco1)N1CCN(c2ncnc3c2cnn3Cc2ccccc2)CC1`, with 741 s.
The result for `COC(=O)c1c(NCc2cccc(OC)c2)c2cc(Cl)ccc2[nH]c1=O` reads 816 s; that for `CCn1nccc1C(=O)N1CCN(C(=O)N2C[C@H]3C[C@H](C2)[C@H]2CCCC(=O)N2C3)CC1`, 609 s.
Then `O=C(NCCN1CCOCC1)c1ccc2c(c1)CCCN2C(=O)c1ccccc1F`, with 602 s.
`COc1cccc(CNC(=O)C2(C)CCCN(C(=O)Nc3ccccc3Cl)C2)c1` (stereo not drawn) showed an RP-LC retention time of 919 s.
`CCOc1ccc(NS(=O)(=O)c2cc(C(=O)Nc3ccc(C)c(C)c3)n[nH]2)cc1`: the RP-LC retention time was 902 s.
The result for `CCn1cnc(S(=O)(=O)N2CCC(C(=O)Nc3ccc(C)cn3)CC2)c1` reads 592 s; that for `Cc1nn(-c2cccc(Cl)c2)c2nc(N3CCCC(C(=O)NC4CC4)C3)sc12` (stereo not drawn), 1060 s; that for `CNC(=O)C1CCCN(c2nc3ncn(CC(=O)Nc4ccc5c(c4)CCC5)c(=O)c3s2)C1` (stereo not drawn), 688 s.
The result for `Cc1ccc(-n2cc3c(N4CCCC(C(=O)NCc5ccc(Cl)cc5)C4)ncnc3n2)cc1` (stereo not drawn) reads 750 s.
`CC(NC(=O)c1c(O)c2sccc2n(Cc2ccccc2)c1=O)c1ccccc1` (stereo not drawn) gave an RP-LC retention time of 1350 s.
Then `CCCCS(=O)(=O)N1CC=C(c2cn(C)c3ncccc23)CC1`, with 879 s; and `Cn1nc(C2CCN(S(=O)(=O)c3cccc(Cl)c3)CC2)n(C2CCCC2)c1=O`, with 925 s.
`CCOC(=O)c1ccc(Nc2c(C(=O)N3CCCCC3CC)cnc3nc(C)ccc23)cc1` (stereo not drawn) registered an RP-LC retention time of 701 s.
The result for `Cc1ccccc1CNS(=O)(=O)c1ccc(-c2c(C)noc2C)cc1` reads 959 s; that for `C=CCN1C(=O)COc2ccc(-c3nc(NC(=O)Cc4ccccc4)sc3C)cc21`, 1000 s.
Then `CCCCN1C(=O)C(CC(=O)NCC(C)C)Sc2ncccc21` (stereo not drawn), with 784 s; and `Cc1cc(C)c(S(=O)(=O)N2CCCC2c2nc(-c3cccc(F)c3)no2)c(C)c1` (stereo not drawn), with 1270 s.
The result for `Cc1ccc(NC(=O)CN2CCc3[nH]c4c(C)ccc(F)c4c(=O)c3C2)cc1F` reads 638 s; that for `CCCc1noc(-c2ccnc(-n3ncc(C(=O)NC4CCCC4)c3C)c2)n1`, 640 s; that for `CCCN(CC1CCOC1)C(=O)c1cccc(Cl)c1` (stereo not drawn), 814 s.
Consider `O=C1NCCCCCN(C(=O)Cn2c(=O)oc3ccccc32)[C@@H]2C[C@@H](C(=O)N3CCc4ccccc4C3)C[C@H]12`, for which the RP-LC retention time came to 864 s.
Then `CCc1nnc2nc(N3CCN(C(=O)Cc4cccs4)CC3)cc(C)n12`, with 613 s; and `O=C(Nc1ccccc1)N1CCN(c2cnn3c(C4CC4)nnc3c2)CC1`, with 625 s.
The result for `O=C(NCc1ccccn1)c1nnn(Cc2ccc(Cl)cc2)c1-n1cccc1` reads 760 s.
The result for `CCc1ccccc1N(C)C(=O)c1cc2c(=O)n(CC)c3ccccc3n2n1` reads 1010 s; that for `O=C(Cn1cnc2c(sc3nc(-c4ccccc4)ccc32)c1=O)NCc1ccc2c(c1)OCO2`, 950 s.
In turn, `CN(C)c1ccc(-c2noc(-c3nc(-c4ccccc4F)no3)n2)cc1` yielded an RP-LC retention time of 1250 s.
Then `O=C1CCCc2cc(S(=O)(=O)NCCc3ccc(Cl)cc3)ccc2N1`, with 800 s; and `O=C(O)c1ccc2c(c1)N(C(=O)c1ccc(F)cc1)CC2`, with 748 s.
The result for `O=C(c1c[nH]c2ccccc12)N1CCCC1c1nc(-c2ccccc2)n[nH]1` (stereo not drawn) reads 649 s; that for `CCn1nccc1C(=O)Nc1ccc2c(c1)OCO2`, 693 s; that for `N#Cc1ccc(NS(=O)(=O)c2c[nH]c3ncccc23)cc1`, 686 s.
The result for `Cc1ccc2nc(C(=O)NCc3ccc(F)cc3F)cn2c1` reads 668 s; that for `Cc1ccc(C(C)NC(=O)C2CCN(c3nccnc3Oc3ccccc3)CC2)cc1C` (stereo not drawn), 1070 s; that for `Cc1ccc(C(C)NC(=O)C2CCN(c3cnc4nccnc4c3)CC2)c(C)c1` (stereo not drawn), 741 s.
The compound `COc1cc(Nc2ncc(F)c(Nc3ccc4c(n3)N(COP(=O)(O)O)C(=O)C(C)(C)O4)n2)cc(OC)c1OC` came in with an RP-LC retention time of 653 s.
Then `CN(C)c1nccnc1OC1CCN(C(=O)C2CCCCC2)C1` (stereo not drawn), with 765 s; and `COCCNc1c(-c2ccccc2)nc2sc(C(=O)N3CCOCC3)c(C)n12`, with 722 s; and `COCCn1cc(C(=O)Nc2cccc(F)c2)c2nn(-c3ccccc3)c(=O)c-2c1`, with 970 s.
The result for `COCCOCc1nc(C2CCCN2S(=O)(=O)Cc2ccccc2)no1` (stereo not drawn) reads 748 s.
Then `CCCS(=O)(=O)N1CC(=O)N(c2cccc(Cl)c2)C(C)(C(=O)NC2CCCCC2)C1` (stereo not drawn), with 955 s; and `O=C(CCc1ccccc1)Nc1ccc2c(c1)CCCN2C(=O)c1ccco1`, with 861 s; and `Cc1ccc(C(CC(=O)N2CCN(c3ccccn3)CC2)n2cccc2)cc1` (stereo not drawn), with 995 s.
In turn, `CCOc1ccccc1C(=O)n1nc(C)c(S(=O)(=O)N2CCOCC2)c1C` showed an RP-LC retention time of 962 s.
Consider `O=C(Cn1cnc2c(sc3nc(-c4ccccc4)ccc32)c1=O)Nc1cccc(Cl)c1`, for which the RP-LC retention time worked out at 1080 s.
On to `COc1ccc(NC(=O)C2(C)Oc3cccnc3N(C)C2=O)c(OC)c1` (stereo not drawn), for which the RP-LC retention time came out at 815 s.
Then `Cc1cccc(CNC(=O)CCc2c(-c3ccc(Br)cc3)nc3ccccn23)c1`, with 718 s; and `Cc1ccc(C(C)NC(=O)c2ccc3c(c2)nc2n3CCN(C(C)C)C2=O)c(C)c1` (stereo not drawn), with 786 s; and `O=S(=O)(Nc1cccn2ncnc12)c1ccccc1Cl`, with 742 s.
Then `Cc1cccc(-c2nc3nc(C)cc(N(CCO)Cc4ccccc4)n3n2)c1`, with 815 s.
Then `CC1(O)CCOC2(CCN(Cc3cn[nH]c3-c3ccc(F)cc3)CC2)C1` (stereo not drawn), with 714 s.
The compound `CC(=O)NC(C)c1nc(-c2ccccc2Cl)no1` (stereo not drawn) came in with an RP-LC retention time of 687 s.
The result for `Cc1cccc(-c2noc(CN3N=NC4C(=O)N(c5ccc(C(C)C)cc5)C(=O)C43)n2)c1` (stereo not drawn) reads 1150 s.
